Measured values from ChEMBL document CHEMBL2029209, “Structure-based design of 2,6,7-trisubstituted-7H-pyrrolo[2,3-d]pyrimidines as Aurora kinases inhibitors” (Bioorg Med Chem Lett, 2012).

How the values were obtained:
Aurora kinase A = target: T1, Aurora kinase A (Homo sapiens, UniProt O14965); test: Inhibition of aurora A kinase
T1 sequence (O14965 whole entry): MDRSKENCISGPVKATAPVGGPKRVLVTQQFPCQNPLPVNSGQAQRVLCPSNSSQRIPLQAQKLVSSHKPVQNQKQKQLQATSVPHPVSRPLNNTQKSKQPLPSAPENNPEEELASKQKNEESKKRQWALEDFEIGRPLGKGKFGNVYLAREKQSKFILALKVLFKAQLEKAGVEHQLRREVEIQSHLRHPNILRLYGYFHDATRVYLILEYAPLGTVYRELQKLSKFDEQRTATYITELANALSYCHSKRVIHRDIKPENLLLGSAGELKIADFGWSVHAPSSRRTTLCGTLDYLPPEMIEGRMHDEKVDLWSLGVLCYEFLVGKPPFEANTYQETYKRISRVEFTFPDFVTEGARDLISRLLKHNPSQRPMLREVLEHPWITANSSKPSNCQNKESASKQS

Aurora kinase B = Aurora kinase B (Homo sapiens, UniProt Q96GD4); test: Inhibition of aurora B kinase
[1] = target: Cyclin-dependent kinase 1 (Homo sapiens, UniProt P06493); test: Inhibition of CDK1
HCT-116 [2] = test: Induction of cell cycle arrest in human HCT116 cells assessed as minimum concentration required for G2/M versus G1 peak ratio over 2; format: functional
HCT-116 [3] = test: Antiproliferative activity against human HCT116 cells; format: functional, cell-based

Sequence of Aurora kinase B (Q96GD4 whole entry): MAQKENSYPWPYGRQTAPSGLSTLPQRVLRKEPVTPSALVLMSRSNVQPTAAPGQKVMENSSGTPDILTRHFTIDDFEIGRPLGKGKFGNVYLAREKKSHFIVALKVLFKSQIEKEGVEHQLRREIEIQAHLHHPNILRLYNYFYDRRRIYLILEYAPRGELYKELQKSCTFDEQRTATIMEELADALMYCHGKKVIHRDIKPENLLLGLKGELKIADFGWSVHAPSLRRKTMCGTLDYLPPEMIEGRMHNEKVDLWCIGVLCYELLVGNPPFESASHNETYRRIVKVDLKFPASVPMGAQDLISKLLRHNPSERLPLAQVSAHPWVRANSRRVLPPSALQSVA
Sequence of Cyclin-dependent kinase 1 (P06493 whole entry): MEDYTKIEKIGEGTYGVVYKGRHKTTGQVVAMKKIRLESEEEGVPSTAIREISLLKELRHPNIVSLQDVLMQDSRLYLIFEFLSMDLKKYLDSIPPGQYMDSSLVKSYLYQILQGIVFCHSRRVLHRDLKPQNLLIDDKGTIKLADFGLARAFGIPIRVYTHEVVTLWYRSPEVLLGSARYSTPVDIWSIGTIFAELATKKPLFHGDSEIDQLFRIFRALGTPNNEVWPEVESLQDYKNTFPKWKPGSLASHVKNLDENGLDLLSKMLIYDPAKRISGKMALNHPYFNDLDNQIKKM

| Compound | IC50 (Aurora kinase A) [nM] | IC50 (Aurora kinase B) [nM] | IC50 [1] [nM] | IC50 (HCT-116 [3]) [nM] | Activity (HCT-116 [2]) [µM] |
| --- | --- | --- | --- | --- | --- |
| CN1CCN(C(=O)c2cc(Nc3ncc4cc(C(=O)O)n(C5CCCC5)c4n3)cn2C)CC1 | 350 | 1000 | 10000 | 12300 | 10 |
| CN1CCN(C(=O)c2cc(Nc3ncc4cc(C(N)=O)n(C5CCCC5)c4n3)cn2C)CC1 |  | 11 | 500 | 70 | 0.1 |
| CN1CCN(C(=O)c2cc(Nc3ncc4ccn(C5CCCC5)c4n3)cn2C)CC1 | 38 | 18 | 240 | 290 | 0.3 |
| CN1CCN(C(=O)c2cc(Nc3ncc4cc(CO)n(C5CCCC5)c4n3)cn2C)CC1 | 20 | 40 | 1300 | 130 | 0.1 |
| CNCc1cc2cnc(Nc3cc(C(=O)N4CCN(C)CC4)n(C)c3)nc2n1C1CCCC1 | 40 | 60 | 700 | 210 | 0.3 |
| CC(O)c1cc2cnc(Nc3cc(C(=O)N4CCN(C)CC4)n(C)c3)nc2n1C1CCCC1 (configuration not stated) | 11 | 30 | 1100 | 80 | 0.1 |
| CN1CCN(C(=O)c2cc(Nc3ncc4cc(/C=N/O)n(C5CCCC5)c4n3)cn2C)CC1 | 11 | 30 | 3 | 4 | 0.002 |

The next compounds have a lower IC50 (Aurora kinase B) than those just listed; values first:

| IC50 (Aurora kinase A) [nM] | IC50 (Aurora kinase B) [nM] | IC50 [1] [nM] | IC50 (HCT-116 [3]) [nM] | Compound | Activity (HCT-116 [2]) [µM] |
| --- | --- | --- | --- | --- | --- |
| 2 | 5 | 200 | 5 | CN1CCN(C(=O)c2cc(Nc3ncc4cc(-c5cncn5C)n(C5CCCC5)c4n3)cn2C)CC1 | 0.003 |
| 2 | 4 | 2000 | 90 | CN1CCN(C(=O)c2cc(Nc3ncc4cc(-c5cnn(Cc6ccccc6)c5)n(C5CCCC5)c4n3)cn2C)CC1 | 0.1 |
| 2 | 4 | 1400 | 110 | CC(C)CCn1cc(-c2cc3cnc(Nc4cc(C(=O)N5CCN(C)CC5)n(C)c4)nc3n2C2CCCC2)cn1 | 0.1 |
| 2 | 4 | 330 | 110 | Cc1c(-c2cc3cnc(Nc4cc(C(=O)N5CCN(C)CC5)n(C)c4)nc3n2C2CCCC2)cnn1C | 0.03 |
| 7.5 | 4 | 6 | 40 | CN1CCN(C(=O)c2cc(Nc3ncc4cc(C#N)n(C5CCCC5)c4n3)cn2C)CC1 | 0.065 |
| 2 | 4 | 28 | 60 | CN1CCN(C(=O)c2cc(Nc3ncc4cc(-c5cnco5)n(C5CCCC5)c4n3)cn2C)CC1 | 0.03 |
|  | 4 | 1700 | 590 | CN1CCN(C(=O)c2cc(Nc3ncc4cc(-c5ccnn5C)n(C5CCCC5)c4n3)cn2C)CC1 | 1 |
| 2 | 4 | 180 |  | CN1CCN(C(=O)c2cc(Nc3ncc4cc(-c5cnn(C)c5)n(C5CCCC5)c4n3)cn2C)CC1 | 0.03 |
